This experiment has as its target T1, UDP-3-O-acyl-N-acetylglucosamine deacetylase (Escherichia coli (strain K12), UniProt P0A725).
T1 sequence (P0A725 whole entry): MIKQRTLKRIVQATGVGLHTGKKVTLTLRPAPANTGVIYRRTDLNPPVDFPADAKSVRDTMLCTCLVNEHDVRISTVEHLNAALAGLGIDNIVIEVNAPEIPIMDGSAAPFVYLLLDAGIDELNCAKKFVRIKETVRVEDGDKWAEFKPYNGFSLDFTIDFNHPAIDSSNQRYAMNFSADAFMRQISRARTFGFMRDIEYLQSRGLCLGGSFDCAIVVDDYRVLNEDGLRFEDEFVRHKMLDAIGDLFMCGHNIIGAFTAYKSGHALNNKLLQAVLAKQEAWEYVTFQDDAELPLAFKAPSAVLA
Kind of experiment: LpxC Assay. From the text: Inhibition assay using E. coli LpxC.

The source of these data is BindingDB's records for doi:10.1021/bi900167q (Duke University, 2009).

Bounds are passed on as bounds.

In general, IC50 refers to the point on the concentration scale where inhibition reaches its midpoint. On to `O=c1ccn(C2OC(CO/N=C/c3ccc(O)c(O)c3O)C(O)C2O)c(=O)[nH]1` (stereo not given) [1-68A analogue], for which the IC50 came out at 27 µM. In turn, `O=c1ccn(C2OC(CO/N=C/c3ccc(O)c(O)c3)C(O)C2O)c(=O)[nH]1` (stereo not given) [1-68Aa analogue] showed an IC50 of 30 µM. The IC50 values of the last two compounds are within 1.5-fold of each other.

In the case of `O=c1ccn(C2OC(CO/N=C/c3cccc(O)c3O)C(O)C2O)c(=O)[nH]1` (stereo not given) [1-68Ac analogue], the IC50 was greater than 500 µM.

In turn, `O=c1ccn(C2OC(CO/N=C/c3cc(O)c(O)c(O)c3)C(O)C2O)c(=O)[nH]1` (stereo not given) [1-68Ad analogue] came in with an IC50 greater than 500 µM. With `O=C(CO/N=C/c1ccc(O)c(O)c1O)NCC1OC(n2ccc(=O)[nH]c2=O)C(O)C1O` (stereo not given) [2-68A analogue] the figure was 120 µM.
